#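 Dose response: 5 concentrations. Exposure: 48 h. Format: 96-well plates. Endpoint: linear interpolation; highest concentration if not reached. GI50: concentration for 50% inhibition of growth. TGI is the concentration that stops growth completely.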
# Experiments:
# Experiment in all cases: NCI-60 cell line screen, 48 h
# EKVX NSCLC = system: EKVX NSCLC
# HCT-116 colon = system: HCT-116 colon
# HCT-15 colon = system: HCT-15 colon
# PC-3 prostate = system: PC-3 prostate
# SK-MEL-2 melanoma = system: SK-MEL-2 melanoma
# SK-MEL-5 melanoma = system: SK-MEL-5 melanoma
# SNB-75 CNS = system: SNB-75 CNS
# UACC-257 melanoma = system: UACC-257 melanoma
# UO-31 renal = system: UO-31 renal
# SR leukemia = system: SR leukemia
Structure (SMILES),GI50 (EKVX NSCLC),TGI (EKVX NSCLC),GI50 (HCT-116 colon),TGI (HCT-116 colon),GI50 (HCT-15 colon),TGI (HCT-15 colon),GI50 (PC-3 prostate),TGI (PC-3 prostate),GI50 (SK-MEL-2 melanoma),TGI (SK-MEL-2 melanoma),GI50 (SK-MEL-5 melanoma),TGI (SK-MEL-5 melanoma),GI50 (SNB-75 CNS),TGI (SNB-75 CNS),GI50 (UACC-257 melanoma),TGI (UACC-257 melanoma),GI50 (UO-31 renal),TGI (UO-31 renal),TGI (SR leukemia),GI50 (SR leukemia)
CCC1OC(/C(C)=C/C(C)/C=C/C2C(C)C2/C=C/C2OC(CC(=O)O)CC(O)C2O)CC=C1C (centres undefined),> 50 µM,> 50 µM,> 50 µM,> 50 µM,> 50 µM,> 50 µM,> 50 µM,> 50 µM,> 50 µM,> 50 µM,> 50 µM,> 50 µM,> 50 µM,> 50 µM,> 50 µM,> 50 µM,> 50 µM,> 50 µM,,
COC(=O)c1nn(C(=N)c2ccc(Cl)cc2)c2c1CCCCC2,,,,> 100 µM,,> 100 µM,,,,> 100 µM,,> 100 µM,,> 100 µM,,> 100 µM,,> 100 µM,> 100 µM,
CCOC(=O)/C(C#N)=C(N)/C(=N\Nc1cccc(C(F)(F)F)c1)C(=O)OCC,,> 100 µM,,> 100 µM,,> 100 µM,,,,> 100 µM,,> 100 µM,,> 100 µM,,> 100 µM,,> 100 µM,> 100 µM,
CCC(=O)OC1=CN2C(=NC(c3ccc(N)cc3)=CC2c2cc(OC)c(OC)c(OC)c2)S1 (centres undefined),,,3.51 µM,13.1 µM,2.47 µM,29.6 µM,6.04 µM,42.9 µM,5.93 µM,20.4 µM,2.89 µM,12 µM,5.12 µM,23.3 µM,5.96 µM,19.9 µM,3.15 µM,13.6 µM,,
O=c1cccccc1NCCNc1cccccc1=O,,> 100 µM,,> 100 µM,,> 100 µM,,,,> 100 µM,,,,,,> 100 µM,,> 100 µM,> 100 µM,
CNC(C)Cc1ccc(O)cc1 (centres undefined),,> 100 µM,,> 100 µM,,> 100 µM,,,,> 100 µM,,> 100 µM,,> 100 µM,,> 100 µM,,> 100 µM,> 100 µM,
N[C@H](C(=O)O)[C@@H](Cl)CC(=O)O,,> 100 µM,,> 100 µM,,> 100 µM,,,,> 100 µM,,> 100 µM,,> 100 µM,,> 100 µM,,> 100 µM,,
C(#Cc1ccccc1C#Cc1ccccn1)c1ccccn1,20.5 µM,40.2 µM,26.4 µM,> 100 µM,11.2 µM,25 µM,13.5 µM,30.2 µM,18.4 µM,36 µM,15.5 µM,30.9 µM,18.5 µM,42.6 µM,19.3 µM,39.8 µM,16.4 µM,35.3 µM,,
COc1cc(CNC(=O)CCSc2nc3ccccc3c(=O)n2Cc2cc(OC)c(OC)c(OC)c2)cc(OC)c1OC,,,3.76 µM,13.3 µM,2.47 µM,> 100 µM,10.8 µM,> 100 µM,2.82 µM,8.14 µM,2.85 µM,13.7 µM,2.06 µM,12.9 µM,16.3 µM,> 100 µM,5.9 µM,> 100 µM,> 100 µM,3.01 µM
[N-]=[N+]=Nc1c(Br)c(=O)[nH]c(=O)n1COCCO,,,,> 100 µM,,,,,,,,> 100 µM,,> 100 µM,,> 100 µM,,> 100 µM,> 100 µM,
Cc1ccc(/C=C2\CN(Cc3cn(CCNc4ccnc5cc(Cl)ccc45)nn3)C/C(=C\c3ccc(C)cc3)C2=O)cc1,,,1.68 µM,3.27 µM,,,1.75 µM,3.74 µM,1.99 µM,3.65 µM,1.7 µM,3.12 µM,1.61 µM,3.53 µM,1.7 µM,3.38 µM,1.44 µM,2.85 µM,,
C/C=C/C(=O)[O-].N.N.N.N.N.[Co+3].[O-][Cl+3]([O-])([O-])[O-],> 100 µM,> 100 µM,> 100 µM,> 100 µM,> 100 µM,> 100 µM,,,> 100 µM,> 100 µM,> 100 µM,> 100 µM,84.7 µM,> 100 µM,> 100 µM,> 100 µM,> 100 µM,> 100 µM,,
COc1cc2c3c(c1OC)Oc1ccc(cc1)CC1c4c(cc(OC)c(OC)c4Oc4ccc(cc4)CC3N(C)CC2)CCN1C (centres undefined),,> 100 µM,,27.2 µM,,,,,,50.6 µM,,31.7 µM,,49.2 µM,,28.6 µM,,31.4 µM,7.24 µM,
O=C1C2=C(c3ccccc31)C(c1ccc(Cl)cc1)NC(=S)N2 (centres undefined),,> 100 µM,,28.3 µM,,35.9 µM,,,,58.7 µM,,> 100 µM,,34 µM,,> 100 µM,,35 µM,,
CS(=O)(=O)Nc1cc(-c2ccc3ncnc(Nc4cccc(Cl)c4F)c3c2)cnc1Cl,1.44 µM,6.27 µM,4.02 µM,19.9 µM,2.78 µM,14.5 µM,2.27 µM,11.6 µM,2.13 µM,6.79 µM,1.66 µM,3.29 µM,0.463 µM,7.43 µM,2.62 µM,18 µM,1.24 µM,4.3 µM,,
COc1cc(/C=C\c2cc(OC)c(OC)c(OC)c2)cc(NS(=O)(=O)c2cccc(Cl)c2)c1OC,0.264 µM,> 100 µM,0.0368 µM,> 100 µM,0.146 µM,> 100 µM,0.0452 µM,> 100 µM,1.38 µM,> 100 µM,0.229 µM,0.519 µM,0.0298 µM,> 100 µM,20.3 µM,> 100 µM,0.0937 µM,> 100 µM,,
Cc1cc(Cl)ccc1NC(=O)NC(C)(C)COC(=O)Nc1cccc(Cl)c1,,,6.3 µM,> 100 µM,2.48 µM,13.1 µM,3.66 µM,52.1 µM,8.08 µM,34.1 µM,6.7 µM,25 µM,11.3 µM,47.1 µM,8.23 µM,42.5 µM,7.11 µM,80.7 µM,> 100 µM,8.31 µM
COC(=O)/C(=N/O)C(C(=O)OC)C(=O)C(=O)Nc1c(Cl)cc(C)cc1S(=O)(=O)O (centres undefined),,> 100 µM,,> 100 µM,,> 100 µM,,,,> 100 µM,,> 100 µM,,> 100 µM,,> 100 µM,,> 100 µM,42.8 µM,
Cc1ccc(C)c2c1CCc1cc3ccccc3nc1-2,,> 100 µM,,> 100 µM,,> 100 µM,,,,> 100 µM,,> 100 µM,,> 100 µM,,> 100 µM,,> 100 µM,,

Structure (SMILES),GI50 (EKVX NSCLC),TGI (EKVX NSCLC),GI50 (HCT-116 colon),TGI (HCT-116 colon),GI50 (HCT-15 colon),TGI (HCT-15 colon),GI50 (PC-3 prostate),TGI (PC-3 prostate),GI50 (SK-MEL-2 melanoma),TGI (SK-MEL-2 melanoma),GI50 (SK-MEL-5 melanoma),TGI (SK-MEL-5 melanoma),GI50 (SNB-75 CNS),TGI (SNB-75 CNS),GI50 (UACC-257 melanoma),TGI (UACC-257 melanoma),GI50 (UO-31 renal),TGI (UO-31 renal),TGI (SR leukemia),GI50 (SR leukemia)
Cc1cccc(O)c(=O)c1,,98.9 µM,,> 100 µM,,> 100 µM,,,,,,> 100 µM,,> 100 µM,,> 100 µM,,> 100 µM,80.6 µM,
O=C(Nc1ccccc1C(=O)O)C(=O)C(C(=O)c1ccccc1-c1ccccc1)C1OC(=O)c2ccccc21 (centres undefined),,58.6 µM,,36.5 µM,,30.6 µM,,,,> 100 µM,,33.9 µM,,53.5 µM,,37.7 µM,,32.5 µM,71.1 µM,
O=C1C2=C(c3ccccc31)C(c1ccc(F)cc1)N1C(=O)CCSC1=N2 (centres undefined),,> 100 µM,,> 100 µM,,> 100 µM,,,,> 100 µM,,> 100 µM,,> 100 µM,,> 100 µM,,> 100 µM,,
COC(=O)C12C3C4C1C1C2C3C41C(=O)N(C(C)C)C(C)C (centres undefined),,> 100 µM,,> 100 µM,,> 100 µM,,,,,,> 100 µM,,> 100 µM,,> 100 µM,,> 100 µM,> 100 µM,
C[C@H]1CCC/C=C/[C@@H]2C[C@H](O)C[C@H]2[C@H](O)[C@@H](SC2OC(CO)C(O)C(O)C2O)CC(=O)O1 (some centres undefined),> 100 µM,> 100 µM,> 100 µM,> 100 µM,> 100 µM,> 100 µM,> 100 µM,> 100 µM,> 100 µM,> 100 µM,16.2 µM,30 µM,53.2 µM,> 100 µM,44.5 µM,> 100 µM,47.9 µM,> 100 µM,,
O=C(O)c1oc2cccc3c2c1CCC3,,> 100 µM,,> 100 µM,,> 100 µM,,,,> 100 µM,,> 100 µM,,> 100 µM,,> 100 µM,,> 100 µM,> 100 µM,
CC(=O)OCC(OC(C)=O)C(OC(C)=O)C(OC(C)=O)C(=O)CNn1c(-c2ccccc2Cl)nc2ccc(Br)cc2c1=O (centres undefined),,> 100 µM,,> 100 µM,,> 100 µM,,,,> 100 µM,,> 100 µM,,> 100 µM,,> 100 µM,,> 100 µM,> 100 µM,
Cc1cc(Cl)ccc1NC(=O)CCCC(=O)C(C(=O)c1ccccc1)c1ccccc1 (centres undefined),,,,,,> 100 µM,,,,> 100 µM,,,,,,> 100 µM,,,,
Cc1ccc(S(=O)(=O)c2ccsc2N)cc1,,,> 100 µM,> 100 µM,> 100 µM,> 100 µM,> 100 µM,> 100 µM,> 100 µM,> 100 µM,66 µM,> 100 µM,,,> 100 µM,> 100 µM,47.2 µM,> 100 µM,> 100 µM,> 100 µM
CCCCN(CCCC)C(=O)C(=O)CC(=O)/C=C/c1ccccc1,,> 100 µM,,> 100 µM,,> 100 µM,,,,> 100 µM,,> 100 µM,,> 100 µM,,> 100 µM,,> 100 µM,> 100 µM,
O=C(O)Cc1cc(=O)[nH]c2c1C(=O)CCC2,,> 100 µM,,,,> 100 µM,,,,> 100 µM,,> 100 µM,,,,> 100 µM,,> 100 µM,> 100 µM,
CC1=NN(C(=O)c2cc(Cl)cc([N+](=O)[O-])c2)C(=O)C1N=Nc1ccccc1C(=O)O (centres undefined),,> 100 µM,,> 100 µM,,,,,,> 100 µM,,> 100 µM,,> 100 µM,,> 100 µM,,> 100 µM,> 100 µM,
CCC1(CC)C(=O)[N-]C(=O)[N-]C1=O.[Au+].[Au+].c1ccc([PH+](c2ccccc2)c2ccccc2)cc1.c1ccc([PH+](c2ccccc2)c2ccccc2)cc1,,,,,,,,,,,1.05 µM,2.26 µM,,,1.26 µM,2.53 µM,1.65 µM,3.04 µM,,
COC(=O)C1=C(c2cc(OC)c(OC)c(OC)c2)O[C@H](c2ccc3c(c2)OCO3)[C@H]1COC(C)=O,,> 100 µM,,,,> 100 µM,,,,> 100 µM,,29.8 µM,,> 100 µM,,> 100 µM,,80 µM,72.6 µM,
COc1cc(C(=O)C/C(CCC(=O)Nc2ccc(Cl)cc2Cl)=N/Nc2nnc(C)n2N)ccc1O,,> 100 µM,,> 100 µM,,> 100 µM,,,,> 100 µM,,> 100 µM,,> 100 µM,,> 100 µM,,> 100 µM,> 100 µM,
C=C1C(=O)O[C@H]2[C@H]1CC/C(COC(=O)/C=C/c1c[nH]c3ccccc13)=C\CC[C@@]1(C)O[C@@H]21,0.238 µM,0.769 µM,0.185 µM,0.425 µM,0.181 µM,0.425 µM,0.329 µM,1.52 µM,0.208 µM,0.412 µM,0.208 µM,0.516 µM,0.17 µM,0.428 µM,0.354 µM,1.46 µM,0.157 µM,0.294 µM,,
O=C(O)c1cc2c(c3ccsc13)-c1ccccc1CC2,50.4 µM,> 100 µM,34.9 µM,> 100 µM,39 µM,> 100 µM,40.9 µM,> 100 µM,26.5 µM,87.5 µM,31.3 µM,> 100 µM,86.2 µM,> 100 µM,53.4 µM,> 100 µM,29.3 µM,79.5 µM,,
Cc1ccc(SCC(O)=C2C(=O)CCCC2=O)cc1,,> 100 µM,,> 100 µM,,> 100 µM,,,,> 100 µM,,> 100 µM,,> 100 µM,,> 100 µM,,> 100 µM,> 100 µM,

# — PubChem BioAssay (NCI)
